Reference: patent US20090137580A1, “Fused Heterocyclic Derivatives and Use Thereof” (Takeda Pharmaceutical Company Limited, priority 2005, published 2009)

Assays:
[1] = tested on: Human umbilical vein endothelial cells (HUVEC); experiment: Vascular endothelial cell growth inhibitory test; format: cell-based; details: Homo sapiens, 120 h, VEGF 120 ng/mL, culture 5 days, XTT reagent
Experimental: Human umbilical vein endothelial cells (HUVEC, purchased from KURABO) were cultured in a gas incubator (37° C., CO2 5%) in a vascular endothelial cell medium (Invitrogen) containing 5% fetal calf serum and a basic fibroblast growth factor (2.5 ng/mL). To be specific, HUVEC suspended in the aforementioned vascular endothelial cell medium (Invitrogen) containing 5% fetal calf serum were seeded into a 96 well flat-bottom plate (50 μL, 3000 cells each well). After culturing overnight, various concentrations of test substance and the final concentration (120 ng/mL) of vascular endothelial growth factor (VEGF) were dissolved in a vascular endothelial cell medium (Invitrogen) containing 5% fetal calf serum and added to each well (50 μL). After culturing for 5 days, an XTT reagent (Wako Pure Chemical Industries, Ltd.) was added to each well (10 μL), and reacted in a gas incubator (37° C., CO2 5%) for 2-3 hr. The absorbance at 450 nm was measured by a microtiter plate reader, and the cell growth inhibitory activity was determined.

[2] = target: T1, PDGFRbeta Receptor Kinase (PDGFRbeta) (Homo sapiens, UniProt P09619); experiment: Determination of PDGFRbeta receptor kinase (PDGFRbeta) inhibitory activity (alpha screen); format: biochemical; details: PDGFRbeta intracellular domain protein, 25 μM ATP buffer; read-out: IC50 value (PDGFRbeta kinase inhibition)
T1 construct: PDGFRbeta intracellular domain protein (UPSTATE); purchased UPSTATE
T1 sequence (P09619 554-1106 limits assumed): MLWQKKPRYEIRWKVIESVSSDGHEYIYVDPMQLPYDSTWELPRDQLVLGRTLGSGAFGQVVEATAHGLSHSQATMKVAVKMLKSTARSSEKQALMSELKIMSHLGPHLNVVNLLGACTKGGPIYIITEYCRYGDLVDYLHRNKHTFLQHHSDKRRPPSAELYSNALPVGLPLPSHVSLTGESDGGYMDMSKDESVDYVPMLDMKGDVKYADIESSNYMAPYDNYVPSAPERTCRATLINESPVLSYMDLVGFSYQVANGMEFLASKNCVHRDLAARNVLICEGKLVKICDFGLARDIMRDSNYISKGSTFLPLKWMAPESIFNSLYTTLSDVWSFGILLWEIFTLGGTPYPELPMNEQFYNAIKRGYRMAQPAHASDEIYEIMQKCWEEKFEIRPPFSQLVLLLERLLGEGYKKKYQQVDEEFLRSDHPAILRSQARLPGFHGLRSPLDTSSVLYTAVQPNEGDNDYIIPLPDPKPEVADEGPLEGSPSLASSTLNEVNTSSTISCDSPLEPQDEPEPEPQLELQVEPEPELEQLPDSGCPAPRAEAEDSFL
Experimental: The test compound dissolved in dimethyl sulfoxide (DMSO) was diluted with a buffer (50 mM Tris-HCl, pH 7.5, 5 mM MgCl2, 5 mM MnCl2, 2 mM dithiothreitol, 0.01% Tween-20). A buffer (10 μl) containing 125 ng/ml PDGFRbeta intracellular domain protein (UPSTATE) and 250 ng/ml biotin-labeled polypeptide biotinyl-poly-Glu:Tyr (4:1) (CIS Bio International) was added to the compound solution (5 μl). At 5 min after mixing a kinase enzyme, the compound and a biotin-labeled polypeptide, a buffer (10 μl) containing 25 μM ATP was added to the obtained mixture, the mixture was allowed to react at 25° C. for 30 min. Then, 25 μl of a stop solution (100 mM EDTA·2 sodium salt, 62.5 mM HEPES buffer (pH 7.4), 250 mM NaCl, 0.1% bovine serum albumin, 10 μg/ml Streptavidin Donor beads: PerkinElmer for alpha screen assay, 10 μg/ml Anti-phosphotyrosine (P-Tyr-66) Acceptor beads: PerkinElmer for alpha screen assay) was added to quench the reaction. The reaction solution was stood at 25° C. for 16 hr, and the count was measured using a plate reader·Fusion™ (manufactured by PerkinElmer). The kinase inhibitory rate (%) of the test compound was calculated by the following formula.
Inhibitory rate(%)=(1−(count of test compound−blank)÷(control−blank))×100
wherein the count of the solution reacted without addition of the compound is “control” and the count of the solution without addition of the compound and ATP is “blank”.

Compound	IC50 [1]	IC50 [2]
Cc1cc(Oc2ncnc3ccn(C)c23)ccc1NC(=O)Nc1cccc(C(F)(F)F)c1 [Example 41, N-{2-methyl-4-[(5-methyl-5H-pyrrolo[3,2-d]pyrimidin-4-yl)oxy]phenyl}-N′-[3-(trifluoromethyl)phenyl]urea]	19 nM	≤ 500 nM
Cn1ccc2ncnc(Oc3ccc(NC(=O)Nc4cccc(OC(F)(F)F)c4)c(Cl)c3)c21 [Example 20, N-{2-chloro-4-[(5-methyl-5H-pyrrolo[3,2-d]pyrimidin-4-yl)oxy]phenyl}-N′-[3-(trifluoromethoxy)phenyl]urea]	6.6 nM	≤ 500 nM
Cn1ccc2ncnc(Oc3ccc(NC(=O)Nc4cccc(C(F)(F)F)c4)c(Cl)c3)c21 [Example 15, N-{2-chloro-4-[(5-methyl-5H-pyrrolo[3,2-d]pyrimidin-4-yl)oxy]phenyl}-N′-[3-(trifluoromethyl)phenyl]urea]	8.2 nM	≤ 500 nM
CCn1ccc2ncnc(Oc3ccc(NC(=O)Nc4cccc(C(F)(F)F)c4)c(Cl)c3)c21 [Example 47, N-{2-chloro-4-[(5-ethyl-5H-pyrrolo[3,2-d]pyrimidin-4-yl)oxy]phenyl}-N′-[3-(trifluoromethyl)phenyl]urea]	11 nM	≤ 500 nM
